One experiment relates to HeLa cells. The experiment can be described thus: Selenite-induced cell death in HeLa cells, PI staining and flow cytometry. Format: cell-based. The procedure: Cells, e.g. HeLa cells (2×10^5), untreated or treated with apoptosis-inducing reagents, were analyzed for apoptotic cell death using PI, annexin V-FITC and flow cytometer analysis. Cells were collected (1500×g for 10 min), washed, and resuspended in 200 μl binding buffer (10 mM HEPES/NaOH, pH 7.4, 140 mM NaCl, and 2.5 mM CaCl2). Annexin V-FITC was added according to the recommended Protocol (Enzo Life Sciences, Switzerland), and the cells were incubated in the dark for 15 min. Cells were then washed with binding buffer and resuspended in 200 μl binding buffer, to which PI was added immediately before flow cytometry analysis. At least 10,000 events were collected, recorded on a dot plot, and analyzed by the FACSCalibur™ flow cytometer software (BD Biosciences, Franklin Lakes, N.J.).
HeLa cells were incubated with varying concentrations (2-20 μM) of racemic compound of Formula 1 (VBIT-4) and of the enantiomers of compound of Formula 1 (VBIT-4-1 and VBIT-4-2) for 1 hour, and then with or without selenite (25 μM, 3 hours). Cells were harvested and assayed for apoptotic cell death, using PI staining and FACS analysis. The results shown in the FIG. 14b correspond to means±SD (n=3).
Cells (2.5 mg/ml) were washed with and resuspended in PBS, pH 8.3 and incubated with membrane-permeable cross-linker EGS (250 μM) at 30° C. for 15 min and then subjected to SDS-PAGE and immunoblotting using anti-VDAC1 antibodies. Several anti-VDAC1 antibody-labeled protein bands were obtained upon exposure to the apoptosis stimuli that are correspond to VDAC1 dimers, trimers, tetramers and multimers. Cell death as induced by selenite and inhibited by the compound of Formula 3 (VBIT-12) or compound of Formula 11 (DIV00781) is shown (FIG. 21B), with closed circles corresponding to the compound of Formula 3 and open circles corresponding to the compound of Formula 11. Cell death was analyzed using propidium iodide (PI) staining and flow cytometry.

The target of a further experiment is T1, purified rat VDAC1 (Rattus norvegicus, UniProt Q9Z2L0).
T1 construct: from tissue; host or cells: rat liver mitochondria
Put plainly: VDAC1 channel conductance in planar lipid bilayer. Format: biochemical. Particulars: for IC50 / Max Inhibition (maximal reduction in channel conductance): planar lipid bilayer, measured at +10 mV and −10 mV. An excerpt:
The direct interaction between VDAC and the compounds of general Formulae (I), (Ia), (Ib), (Ic), (Id), (II) and (IIa), especially the specific compounds of Formulae 1, 2, 3, 10 and 11, may be measured by assessing VDAC channel conductance, following its reconstitution into a planar lipid bilayer (PLB). The compounds of the general Formulae (I), (Ia), (Ib), (Ic), (Id), (II) and (IIa), interact with VDAC and reduce its channel conductance. To obtain quantitative parameters of this interaction and derive a dissociation constant, e.g. a microscale thermophoresis (MST) interaction assay may be performed. In this manner, dissociation values are derived from the curves showing the affinity of the compounds of the invention to VDAC.
Briefly, rat liver mitochondria (5 mg/ml) in 10 mM Tris-HCl, pH 7.2, were incubated with 2% LDAO at 0° C. for 20 min, followed by centrifugation (30 min, 14,000 g) and the obtained supernatant was loaded onto a dry celite:hydroxyapatite (2:1) column. VDAC1 was eluted with a solution containing 2% LDAO, 10 mM Tris-HCl, pH 7.2, 50 mM NaCl, and 20 to 22 mM NaH2PO4, with VDAC1 detection by Coomassie blue staining. The VDAC1-containing fractions were dialyzed against 10 mM Tris-HCl, pH 7.2, and subjected to a second chromatography step on a carboxymethyl-cellulose (CMC) column from which VDAC1 was eluted with a solution containing 10 mM Tris-HCl, pH 7.2, 0.1% LDAO and 500 mM NaCl, detected as above. The VDAC1-containing fractions were collected and used for VDAC1 channel conductance and MST assays.
The reconstitution of purified rat VDAC1 into a planar lipid bilayer (PLB) and subsequent single and multiple channel current recordings and data analysis were carried out as follows. Briefly, the PLB was prepared from soybean asolectin dissolved in n-decane (30 mg/ml). Purified VDAC1 (1 ng) was added to the chamber defined as the cis side containing 1 M NaCl, 10 mM Hepes, pH 7.4. Currents were recorded under voltage-clamp using a Bilayer Clamp BC-535B amplifier (Warner Instrument, Hamden, Conn.). The currents, measured with respect to the trans side of the membrane (ground), were low-pass-filtered at 1 kHz and digitized online using a Digidata1440-interface board and pClampex 10.2 software (Axon Instruments, Union City, Calif.).
VDAC1 was purified as described above in Methods (VDAC1 purification). Purified VDAC1 was reconstituted into a planar lipid bilayer (PLB) membrane and currents through VDAC1, in response to a voltage steps from 0 to +10 mV, from 0 to −10 mV, from 0 to +40 mV, and from 0 to −40 mV, were recorded before and 15 min after the addition of 20 μM of the compound of Formula 3 (VBIT-12).
Solid circles indicate conductance without VBIT-12, open circles with 20 μM VBIT-12.
Further, the VDAC1 channel conductance was measured with the increasing concentrations of VBIT-12, or of compound of Formula 1 (VBIT-4). Concentration dependence of VBIT-12 reducing VDAC1 channel conductance was measured at +10 my and at −10 mV.

Molecules are shown by their SMILES.

T1 sequence (Q9Z2L0 whole entry): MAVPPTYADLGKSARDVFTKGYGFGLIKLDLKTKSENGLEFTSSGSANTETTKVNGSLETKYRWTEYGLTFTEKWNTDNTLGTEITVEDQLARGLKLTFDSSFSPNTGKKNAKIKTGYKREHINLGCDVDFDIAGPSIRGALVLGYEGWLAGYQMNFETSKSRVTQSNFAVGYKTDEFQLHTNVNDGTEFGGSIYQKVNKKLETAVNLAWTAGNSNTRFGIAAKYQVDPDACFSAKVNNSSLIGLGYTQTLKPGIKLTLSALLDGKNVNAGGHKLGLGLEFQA

`O=C(CC(CO)N1CCN(c2ccc(OC(F)(F)F)cc2)CC1)Nc1ccc(Cl)cc1` (racemic) [Formula 1, N-(4-chlorophenyl)-4-hydroxy-3-(4-(4-(trifluoromethoxy)phenyl)-piperazin-1-yl)butanamide]: the apoptotic cell death result in the experiment with HeLa cells (2-20 μM 1 hour, then selenite 25 μM 3 hours) was “Inhibit Apoptotic Cell Death”. On purified rat VDAC1, 15 µM corresponded to half-maximal inhibition (IC50) and the “Max Inhibition (maximal reduction in channel conductance)” value is 50%.

On to `O=C(O)CNC(=O)C1(Nc2ccccc2)CCN(Cc2cccc3ccccc23)CC1` [Formula 3], for which the “cell death as induced by selenite” value with HeLa cells (22 h with selenite 8 μM and increasing concentrations) is recorded as “inhibited”. Also, on purified rat VDAC1, the “decrease in maximal channel conductance relative to VBIT-4” value is “higher decrease in the maximal channel conductance”, the IC50 amounted to 5 µM and the “Max Inhibition (maximal reduction in channel conductance)” value was found to be 80%. Moreover, on purified rat VDAC1 (20 μM), the “VDAC1 conductance in multi-channel experiments as function of voltage” value is given as “stabilizing VDAC1 at a low conductance state at all voltages tested”. Further, the VDAC1 channel conductance entry at purified rat VDAC1 (20 μM, 15 min after addition, voltage steps 0 to ±10 mV and ±40 mV) was “Channel conductance was reduced and the channel was stabilized in a low conducting state”. Also, at purified rat VDAC1 (from concentration dependence of channel conductance), the “affinity to VDAC1 relative to VBIT-4” value is “higher affinity than VBIT-4”.
